Laboratory results as given in patent publication US8343513B2, “Prevention of molecular weight reduction of the polymer, impurity formation and gelling in polymer compositions” (Oakwood Laboratories, LLC, priority 2003, dated 2013).
Where a SMILES comes first, the peptide text is derived from it. [ ]: non-standard residue; d: D form. The star is where a group is joined. dPhe(4-Cl) = N[C@H](Cc1ccc(Cl)cc1)C(=O)O; Nicotinoyl(6-NH2) = Nc1ccc(C(=O)*)cn1; d2Nal = N[C@H](Cc1ccc2ccccc2c1)C(=O)O; Lys(iPr) = CC(C)NCCCC[C@H](N)C(=O)O; d3Pal = N[C@H](Cc1cccnc1)C(=O)O; Picolinoyl = O=C(c1ccccn1)*; dOrn = NCCC[C@@H](N)C(=O)O

Experiments:
[1] = Screening of octreotide related substance formation with polymers and acid additives, 40° C. 24 and 48 hour; assay type: physicochemical; conditions: octreotide with polymer in DCM/methanol
[2] = cited from earlier work
[3] = Orntide solubility and gelling in solvents and dispersed phase; assay type: physicochemical
Description: However, most of the GnRH analogs are soluble only at certain concentrations (at very low concentrations of antagonists and moderate concentrations of agonists) beyond which these analogs pose solubility and gelling problems when dissolved in these solvents.
The stability was followed for a day.

Compound	related substances formation in words [1]	also measured
CC(O)C(=O)O (stereo not shown) [lactic acid]	reduced the related substances and made comparable to the control	
O=C(O)C(O)CO (stereo not shown) [glyceric acid]		pKa [2]: 3.25
O=C(O)CO [glycolic acid]	prevented the related substances formation	
CC(=O)N[C@H](Cc1ccc2ccccc2c1)C(=O)N[C@H](Cc1ccc(Cl)cc1)C(=O)N[C@H](Cc1cccnc1)C(=O)N[C@@H](CO)C(=O)N[C@@H](CCCCNC(=O)c1ccccn1)C(=O)N[C@H](CCCNC(=O)c1ccc(N)nc1)C(=O)N[C@@H](CC(C)C)C(=O)N[C@@H](CCCCNC(C)C)C(=O)N1CCC[C@H]1C(=O)N[C@H](C)C(N)=O [PPL-ORN-9902] (Ac-[d2Nal][dPhe(4-Cl)][d3Pal]SK(Picolinoyl)[dOrn](Nicotinoyl(6-NH2))L[Lys(iPr)]P[dA]-NH2)		time to gel ([3]; 84 mg orntide acetate, 100 mg glacial acetic acid, 130 mg methanol, 1.28 g methylene chloride, warmed to 40° C.): ≤ 30 min
CC(=O)N[C@H](Cc1ccc2ccccc2c1)C(=O)N[C@H](Cc1ccc(Cl)cc1)C(=O)N[C@H](Cc1cccnc1)C(=O)N[C@@H](CO)C(=O)N[C@@H](CCCCNC(=O)c1ccccn1)C(=O)N[C@H](CCCNC(=O)c1ccc(N)nc1)C(=O)N[C@@H](CC(C)C)C(=O)N[C@@H](CCCCNC(C)C)C(=O)N1CCC[C@H]1C(=O)N[C@H](C)C(N)=O [orntide] (Ac-[d2Nal][dPhe(4-Cl)][d3Pal]SK(Picolinoyl)[dOrn](Nicotinoyl(6-NH2))L[Lys(iPr)]P[dA]-NH2)		solubility ([3]; aqueous media, even at a pH lower than 5): < 5000 µg/mL
CCCCCCCCCCCCCCCCCC(=O)O [stearic acid]	less efficient than lactic and glycolic acids	
CC(=O)O [glacial acetic acid]	less efficient than lactic and glycolic acids	
